According to PubChem BioAssay (NCI):
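Growth conditions: 96-well plates. Treatment: test compound, 48 hours, 5 concentrations. Analysis: linear interpolation between bracketing concentrations; unreached endpoints set to highest concentration. GI50 marks 50% less growth. TGI is the concentration that stops growth completely.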

What was measured:
Assay in all cases: DTP human tumour cell line panel, 48 h
[1] = test system: NCI-H226 lung
[2] = test system: M19-MEL melanoma
[3] = test system: HOP-18 NSCLC
[4] = test system: SK-OV-3 ovarian
[5] = test system: SK-MEL-5 melanoma
[6] = test system: COLO 205 colon
[7] = test system: A498 renal
[8] = test system: SK-MEL-2 melanoma
[9] = test system: SF-268 CNS
[10] = test system: TK-10 renal
[11] = test system: IGROV1 ovarian
[12] = test system: DMS 114 small cell lung
[13] = test system: M14 melanoma
[14] = test system: HCT-15 colon
[15] = test system: SNB-19 CNS
[16] = test system: UACC-62 melanoma
[17] = test system: LXFL 529 NSCLC
[18] = test system: SF-295 CNS
[19] = test system: DLD-1 colon
[20] = test system: SF-539 CNS
[21] = test system: HCT-116 colon
[22] = test system: LOX IMVI melanoma
[23] = test system: RXF 393 renal
[24] = test system: SNB-75 CNS
[25] = test system: CAKI-1 renal
[26] = test system: HT29 colon
[27] = test system: KM12 colon
[28] = test system: OVCAR-8 ovarian
[29] = test system: SR leukemia
[30] = test system: RPMI-8226 leukemia
[31] = test system: MALME-3M melanoma
[32] = test system: SNB-78 CNS
[33] = test system: ACHN renal
[34] = test system: OVCAR-4 ovarian
[35] = test system: U251 CNS
[36] = test system: NCI-H460 lung
[37] = test system: DMS 273 small cell lung
[38] = test system: UO-31 renal
[39] = test system: HOP-62 NSCLC
[40] = test system: HL-60(TB) leukemia
[41] = test system: K-562 leukemia
[42] = test system: CCRF-CEM leukemia
[43] = test system: SW-620 colon
[44] = test system: OVCAR-5 ovarian
[45] = test system: NCI-H522 lung
[46] = test system: SK-MEL-28 melanoma
[47] = test system: NCI-H23 lung
[48] = test system: HCC-2998 colon
[49] = test system: OVCAR-3 ovarian
[50] = test system: KM20L2 colon
[51] = test system: A549 NSCLC
[52] = test system: SN12C renal
[53] = test system: HOP-92 NSCLC
[54] = test system: UACC-257 melanoma
[55] = test system: 786-0 renal
[56] = test system: MOLT-4 leukemia
[57] = test system: EKVX NSCLC
[58] = test system: XF 498 CNS

CCCCCCCCCCCCCCCC/C(C(=O)OC)=C(/O)C(=O)OCC
TGI [1]: > 100 µM | TGI [2]: > 100 µM | TGI [3]: > 100 µM | TGI [4]: > 100 µM | TGI [5]: > 100 µM | TGI [6]: > 100 µM | TGI [7]: > 100 µM | TGI [8]: > 100 µM | TGI [9]: > 100 µM | TGI [10]: > 100 µM | TGI [11]: > 100 µM | TGI [12]: > 100 µM | TGI [13]: > 100 µM | TGI [14]: > 100 µM | TGI [15]: > 100 µM | TGI [16]: > 100 µM | TGI [17]: > 100 µM | TGI [18]: > 100 µM | TGI [19]: > 100 µM | TGI [20]: > 100 µM | TGI [21]: > 100 µM | TGI [22]: > 100 µM | TGI [23]: > 100 µM | TGI [24]: > 100 µM | TGI [25]: > 100 µM | TGI [26]: > 100 µM | TGI [27]: > 100 µM | TGI [28]: > 100 µM | TGI [29]: > 100 µM | TGI [30]: > 100 µM | TGI [31]: > 100 µM | TGI [32]: > 100 µM | TGI [33]: > 100 µM | TGI [34]: > 100 µM | TGI [35]: > 100 µM | TGI [36]: > 100 µM | TGI [37]: > 100 µM | TGI [38]: > 100 µM | TGI [39]: > 100 µM | TGI [40]: > 100 µM | TGI [41]: > 100 µM | TGI [42]: > 100 µM | TGI [43]: > 100 µM | TGI [44]: > 100 µM | TGI [45]: > 100 µM | TGI [46]: > 100 µM | TGI [47]: > 100 µM | TGI [48]: > 100 µM | TGI [49]: > 100 µM | TGI [50]: > 100 µM | TGI [51]: > 100 µM | TGI [52]: > 100 µM | TGI [53]: 84.9 µM | TGI [54]: > 100 µM | TGI [55]: > 100 µM | TGI [56]: > 100 µM

C=CCOC(C)n1c(C)cc(=O)n(C(C)OCC=C)c1=O (stereo unspecified)
TGI [1]: > 100 µM | TGI [2]: > 100 µM | TGI [3]: > 100 µM | TGI [4]: > 100 µM | TGI [5]: > 100 µM | TGI [6]: > 100 µM | TGI [7]: > 100 µM | TGI [9]: > 100 µM | TGI [11]: > 100 µM | TGI [12]: > 100 µM | TGI [13]: > 100 µM | TGI [14]: > 100 µM | TGI [15]: > 100 µM | TGI [16]: > 100 µM | TGI [17]: > 100 µM | TGI [18]: > 100 µM | TGI [19]: > 100 µM | TGI [20]: > 100 µM | TGI [21]: > 100 µM | TGI [23]: > 100 µM | TGI [24]: > 100 µM | TGI [26]: > 100 µM | TGI [28]: > 100 µM | TGI [29]: > 100 µM | TGI [30]: > 100 µM | TGI [31]: > 100 µM | TGI [32]: > 100 µM | TGI [33]: > 100 µM | TGI [34]: > 100 µM | TGI [35]: > 100 µM | TGI [37]: > 100 µM | TGI [38]: > 100 µM | TGI [39]: > 100 µM | TGI [40]: > 100 µM | TGI [41]: > 100 µM | TGI [42]: > 100 µM | TGI [43]: > 100 µM | TGI [45]: > 100 µM | TGI [46]: > 100 µM | TGI [47]: > 100 µM | TGI [48]: > 100 µM | TGI [57]: > 100 µM | TGI [50]: > 100 µM | TGI [51]: > 100 µM | TGI [52]: > 100 µM | TGI [53]: > 100 µM | TGI [54]: > 100 µM | TGI [55]: > 100 µM | TGI [56]: > 100 µM

CC(C)=[CH][Sb]([Br])([CH]=C(C)C)([CH]=C(C)C)[c]1ccccc1
GI50 [2]: 6.14 µM | TGI [2]: > 100 µM | GI50 [4]: 23 µM | TGI [4]: 74.6 µM | GI50 [5]: 4.27 µM | TGI [5]: 21.1 µM | GI50 [6]: 4.52 µM | TGI [6]: 19.2 µM | GI50 [7]: 73 µM | TGI [7]: > 100 µM | GI50 [8]: 26 µM | TGI [8]: 86.7 µM | GI50 [9]: 14.5 µM | TGI [9]: 58.2 µM | GI50 [10]: 34.9 µM | TGI [10]: > 100 µM | GI50 [11]: 16.9 µM | TGI [11]: > 100 µM | GI50 [12]: 13.1 µM | TGI [12]: 46.3 µM | GI50 [13]: 20.6 µM | TGI [13]: 82.4 µM | GI50 [58]: 24.3 µM | TGI [58]: > 100 µM | GI50 [14]: > 100 µM | TGI [14]: > 100 µM | GI50 [15]: 8.95 µM | TGI [15]: 79 µM | GI50 [16]: 16 µM | TGI [16]: 97.2 µM | GI50 [17]: 20.3 µM | TGI [17]: > 100 µM | GI50 [18]: 20.2 µM | TGI [18]: 90.1 µM | GI50 [19]: 34 µM | TGI [19]: > 100 µM | GI50 [21]: 13 µM | TGI [21]: 47.2 µM | GI50 [22]: 35.4 µM | TGI [22]: > 100 µM | GI50 [23]: 11.4 µM | TGI [23]: 57.5 µM | GI50 [25]: > 100 µM | TGI [25]: > 100 µM | GI50 [26]: 20.6 µM | TGI [26]: > 100 µM | GI50 [27]: 6.74 µM | TGI [27]: > 100 µM | GI50 [28]: 29.6 µM | TGI [28]: > 100 µM | GI50 [29]: 18.7 µM | TGI [29]: > 100 µM | GI50 [30]: 2.12 µM | TGI [30]: 15.7 µM | GI50 [31]: 6.07 µM | TGI [31]: > 100 µM | GI50 [33]: 36.9 µM | TGI [33]: > 100 µM | GI50 [34]: 49.3 µM | TGI [34]: > 100 µM | GI50 [35]: 16.3 µM | TGI [35]: 74.2 µM | GI50 [36]: 21.6 µM | TGI [36]: > 100 µM | GI50 [37]: 3.91 µM | TGI [37]: 31 µM | GI50 [38]: 23.2 µM | TGI [38]: > 100 µM | GI50 [39]: 43.9 µM | TGI [39]: > 100 µM | GI50 [40]: 3.71 µM | TGI [40]: 15.6 µM | GI50 [41]: 11 µM | TGI [41]: 23 µM | GI50 [42]: 12.8 µM | TGI [42]: 46.6 µM | GI50 [43]: 32.6 µM | TGI [43]: > 100 µM | GI50 [45]: 3.32 µM | TGI [45]: 13.9 µM | GI50 [46]: 17.3 µM | TGI [46]: > 100 µM | GI50 [47]: 14.4 µM | TGI [47]: 45.1 µM | GI50 [48]: 27.2 µM | TGI [48]: > 100 µM | GI50 [49]: 4.32 µM | TGI [49]: 67.3 µM | GI50 [57]: 3.95 µM | TGI [57]: > 100 µM | GI50 [50]: 15.9 µM | TGI [50]: > 100 µM | GI50 [51]: 16.6 µM | TGI [51]: > 100 µM | GI50 [52]: 25.4 µM | TGI [52]: > 100 µM | GI50 [54]: 6.35 µM | TGI [54]: > 100 µM | GI50 [55]: 43.7 µM | TGI [55]: > 100 µM | GI50 [56]: 23.9 µM | TGI [56]: > 100 µM

Nc1nc(-c2ccco2)cc(-c2ccco2)n1
TGI [1]: > 100 µM | TGI [2]: > 100 µM | TGI [5]: > 100 µM | TGI [6]: > 100 µM | TGI [8]: > 100 µM | TGI [9]: > 100 µM | TGI [10]: > 100 µM | TGI [11]: > 100 µM | TGI [12]: > 100 µM | TGI [13]: > 100 µM | TGI [58]: > 100 µM | TGI [14]: > 100 µM | TGI [15]: > 100 µM | TGI [16]: > 100 µM | TGI [17]: > 100 µM | TGI [18]: > 100 µM | TGI [20]: > 100 µM | TGI [21]: > 100 µM | TGI [22]: > 100 µM | TGI [23]: > 100 µM | TGI [24]: > 100 µM | TGI [26]: > 100 µM | TGI [27]: > 100 µM | TGI [28]: > 100 µM | TGI [29]: > 100 µM | TGI [30]: > 100 µM | TGI [31]: > 100 µM | TGI [33]: > 100 µM | TGI [34]: > 100 µM | TGI [35]: > 100 µM | TGI [36]: > 100 µM | TGI [37]: > 100 µM | TGI [38]: > 100 µM | TGI [39]: > 100 µM | TGI [40]: > 100 µM | TGI [41]: > 100 µM | TGI [42]: > 100 µM | TGI [43]: > 100 µM | TGI [44]: > 100 µM | TGI [45]: > 100 µM | TGI [46]: > 100 µM | TGI [47]: > 100 µM | TGI [49]: > 100 µM | TGI [57]: > 100 µM | TGI [50]: > 100 µM | TGI [51]: > 100 µM | TGI [52]: > 100 µM | TGI [55]: > 100 µM | TGI [56]: > 100 µM
